{"source": "patent US6579536B1", "about": "“Sustained-release pharmaceutical preparation containing tilidine mesylate as active ingredient” (Hexal AG, priority 1998, dated 2003)", "experiment": "Stability of tilidine mesylate in solid form, in combination with solid additives", "data": [{"substance": "tilidine mesylate", "values": [{"measurement": "decomposition in the solid form (stability)", "result": "virtually does not undergo any decomposition"}]}]}
